Columns and labels:
59-HI tumors = test: Constitutive-resistant tumor transplanted s.c. in BALB/c mice; format: in vivo, mouse
Description: (§1) C4-2-HI, 59-HI, and C4-HIR tumors were transplanted s.c nearby the mammary gland 4th in syngenic mice, and measured every 2 days (length and width). Treatments were initiated when the tumors were palpable. […] The mice were inoculated intraperitoneally (i.p.) with 0.75 mg/kg 5azadC (for C4-2-HI and C4-HIR tumors) or 1 mg/kg 5azadC (for 59-HI tumors) every other day. All the experiments were repeated twice using five mice per group. The animals were euthanized after 13 days of treatment, and tumor samples were removed and frozen at −80° C. or fixed in 10% formaldehyde.
(§2) Cytosolic or nuclear extracts were processed for western blots as described previously. The cells were lysed using Mammalian Protein Extraction Reagent (Pierce, Rockford, Ill.) according the manufacturer's instructions. The western blot membranes were incubated with antibodies against PR (C-19, Santa Cruz Biotech, CA, or Ab-7, Neomarkers, Lab Vision Corp, Fremont, Calif.), PRB (Ab-6, Neomarkers), ERKs (SC-94, Santa Cruz Biotech), E-Cad (610182, BD), Actin (1-19, Santa Cruz Biotech), DnmtI, Dnmt3a and Dnmt3b (H-300, H-295, and H-230, respectively, Santa Cruz Biotech), RARβ (SC-14028, Santa Cruz Biotech), PTEN Ab32199, Abcam), p16 (SC-1207, Santa Cruz Biotech), Rb (SC-50, Santa Cruz Biotech), or glucocorticoid receptors (GRs) (SC-1004, Santa Cruz Biotech) overnight at 4° C., at a concentration of 2 μg/ml in PBST (0.8% NaCl, 0.02% KCl, 0.144% Na2PO4, 0.024% KH2PO4, pH 7.4, 0.1% Tween 20). The band intensities from 3 to 4 different tumor samples indifferent western blots were quantified using Image Quant software.
(§3) Sections of formalin-fixed, paraffin-embedded tissue were processed as previously described and stained with the PRA-specific antibody (C-19) using the avidin-biotin-peroxidase complex technique (Vectastain Elite ABC kit; Vector), as described previously.
(§4) H&E stained sections of livers, spleens, and kidneys from the 5azadC-treated mice (1 mg/kg or 0.75 mg/kg/every other day; n=5) were studied by an expert mouse pathologist. The percentage of tumor stoma versus tumor parenchyma was quantified with the ImageJ software in treated and untreated tumors. The stromal area in relation to the total tumor area was calculated in five representative fields of each sample, using 400× magnification, in three different tumor samples of each group, and the mean±SEM was calculated. Mitotic and apoptotic indices were counted in 10 and 15 high-power fields (HPFs), respectively, of each section, using 1000× magnification, and expressed as the mean±SEM of the percentage of the ratios between the total number of events (mitosis or apoptosis) and the total cell number per HPF. Mitotic figures were identified morphologically by the condensed “hairy” aspect of the chromosomes. Morphological identification of apoptosis was performed according to criteria previously reported, which correlated with the deoxynucleotidyl transferase mediated dUTP-biotin nick end labeling (TUNEL) method.
as §1, with “C4-2-HI” for “C4-2-HI, 59-HI,”, “59-HI” for “C4-HIR”, “every other day” for “(for C4-2-HI”, “s.c. with” for “C4-HIR tumors) or”, “TSA” for “5azadC (for 59-HI tumors)”, “−80 C” for “−80° C.”

C4-2-HI tumors = test: as above; format: in vivo, mouse
Description: as §1, §2, §3, §4
as §1, with “C4-2-HI” for “C4-2-HI, 59-HI,”, “59-HI” for “C4-HIR”, “every other day” for “(for C4-2-HI”, “s.c. with” for “C4-HIR tumors) or”, “TSA” for “5azadC (for 59-HI tumors)”, “−80 C” for “−80° C.”

[1] = tested on: PRA and PRB in C4-2-HI and 59-HI cells; test: PR isoform expression after 5azadC in vitro (immunofluorescence, western blot); format: cell-based, mouse; details: 96 h
Description: C4-2-HI and 59-HI epithelial cells from primary cell cultures were allowed to attach for 24 h. The medium was replaced with fresh medium with 10% FCS, and 5azadC was added for 96 h. The medium was refreshed daily. Cells were processed for western blot or immunofluorescence to evaluate PR expression.
Cytosolic or nuclear extracts were processed for western blots as described previously. The cells were lysed using Mammalian Protein Extraction Reagent (Pierce, Rockford, Ill.) according the manufacturer's instructions. […] The band intensities from 3 to 4 different tumor samples indifferent western blots were quantified using Image Quant software.
Frozen sections or cells grown in chamber slides, fixed in 70% ethanol for 1 h, were incubated with antibodies recognizing Dnmt1, Dnmt3a, Dnmt3b, PRA (Ab-7), RPB (Ab-6), or GR, in blocking buffer at a 1:200 dilution overnight at 4° C. […] Stained cells were analyzed using a Nikon Eclipse E800 Laser Confocal Microscope and EZ-C1 2.20 software. Cell staining was quantified using Image Quant software.

C4-2-HI and 59-HI cells = test: (3H)-thymidine incorporation with 5azadC and RU-486 in 10% FCS; format: cell-based, mouse; details: 5 μM 5azadC, 100 nM RU-486; P<0.001
Description: (3H)-thymidine-uptake was used as an indirect method to evaluate cell proliferation. In brief, cells were seeded into 96-well microplates. After attachment (24 h), the cells were incubated for 24 h with 1% steroid-stripped FCS and then for 48 h with the experimental solutions to be tested in 1% chFCS. Fifty percent of the medium was replaced with fresh medium every 24 h. […] In experiments in which 5azadC was used, the experiments were carried out using proliferating cells (presence of 10% FCS) to guarantee the effect of the demethylating agent. Three different experiments were made using octuplicates, and the means and standard deviations of one representative experiment of the other three are shown.

[2] = Histology of livers, spleens and kidneys of 5azadC-treated mice; format: in vivo, mouse; details: 0.75 and 1 mg/kg every other day
Description: as §4

GR in C4-2-HI cells = test: GR expression in vitro (immunofluorescence); format: cell-based, mouse; details: 5×10^-7 M, 96 h
Description: Frozen sections or cells grown in chamber slides, fixed in 70% ethanol for 1 h, were incubated with antibodies recognizing Dnmt1, Dnmt3a, Dnmt3b, PRA (Ab-7), RPB (Ab-6), or GR, in blocking buffer at a 1:200 dilution overnight at 4° C. They were then incubated with a FITC conjugated anti-rabbit (FI-1000, Vector Laboratories Burlingame, Calif.; 1:100 dilution) secondary antibody for 1 h at room temperature. Nuclei were stained with propidium iodide (PI, Sigma). The slides were mounted using Vectashield (Vector Laboratories). Stained cells were analyzed using a Nikon Eclipse E800 Laser Confocal Microscope and EZ-C1 2.20 software. Cell staining was quantified using Image Quant software.

C4-HIR cells = test: (3H)-thymidine uptake, primary cultures of purified epithelial cells; format: cell-based, mouse; details: 48 h, 1% chFCS; P<0.001
Description: (§5) Epithelial cells and carcinoma-associated fibroblasts were separated by differential sedimentation and plated with 10% FCS. Carcinoma-associated fibroblasts were allowed to attach for 0.5 h and the epithelial cells for 24-48 h. The medium was replaced by fresh medium with 10% FCS; thereafter, it was changed every 2-3 days.
(§6) (3H)-thymidine-uptake was used as an indirect method to evaluate cell proliferation. In brief, cells were seeded into 96-well microplates. After attachment (24 h), the cells were incubated for 24 h with 1% steroid-stripped FCS and then for 48 h with the experimental solutions to be tested in 1% chFCS. Fifty percent of the medium was replaced with fresh medium every 24 h. The cells were incubated with 0.4 μCi of 3H-thymidine (specific activity: 20 Ci/mmol) for 24 h, trypsinized, and harvested in a cell harvester. In experiments in which 5azadC was used, the experiments were carried out using proliferating cells (presence of 10% FCS) to guarantee the effect of the demethylating agent. Three different experiments were made using octuplicates, and the means and standard deviations of one representative experiment of the other three are shown. The results are expressed as the proliferation index (cpm […] experimental group/cpm control; mean±SEM).

C4-HI cells = test: as above; format: cell-based, mouse; details: 48 h, 1% chFCS; P<0.001
Description: as §5, §6

C4-2-HI cells = test: as above; format: cell-based, mouse; details: 48 h, 1% chFCS
Description: as §5, §6

T47D cells = details: 5% FCS; cited from earlier work
[3] = tested on: C4-HI or C4-HIR epithelial cells with carcinoma-associated fibroblasts; test: (3H)-thymidine uptake, co-cultures with carcinoma-associated fibroblasts; format: cell-based, mouse; details: own or other tumor's fibroblasts
Description: Trypsinized cells were resuspended and equal amounts of epithelial cells and carcinoma-associated fibroblasts were seeded with 10% FCS that was replaced after attachment by 1% steroid-stripped FCS. […] The same amount of epithelial cells or carcinoma-associated fibroblasts or double the amount of purified cells was used for comparison.
as §6

SMILES	PRA staining (immunohistochemistry) (59-HI tumors; 5azadC-treated tumors)	PRA expression (western blots) (59-HI tumors; P<0.01)	tumor growth (59-HI tumors; RU-486 12 mg/kg/day s.c., 5azadC 1 mg/kg every other day i.p., 13 days)	PRB level (59-HI tumors; not shown)	PRA staining (immunohistochemistry) (C4-2-HI tumors; 5azadC-treated vs control tumors)	PRA expression (western blots) (C4-2-HI tumors; P<0.01)	tumor growth (C4-2-HI tumors; RU-486 12 mg/kg/day s.c., 5azadC 0.75 mg/kg every other day i.p., 13 days)	PRB level (C4-2-HI tumors; not shown)	expression of GR (western blots) (C4-2-HI tumors; tumors from 5azadC-treated mice)	PRA expression ([1]; 5×10^-7 M (C4-2-HI), 5×10^-6 M (59-HI), P<0.001)	PRB staining (Ab-6 antibody) [1]	cell proliferation, (3H)-thymidine incorporation (C4-2-HI and 59-HI cells)	Histological evaluation of liver, spleen, and kidney [2]	expression of GR (immunofluorescence) (GR in C4-2-HI cells)	cell proliferation (proliferation index) (C4-HIR cells)	cell proliferation (proliferation index) (C4-HI cells)	cell proliferation (proliferation index) (C4-2-HI cells)	effects on T47D cells (T47D cells)	co-culture cell proliferation [3]
Nc1ncn([C@H]2C[C@H](O)[C@@H](CO)O2)c(=O)n1 [5azadC, 5-aza-2′-deoxycytidine]	only cytoplasmic and perinuclear PRA staining	increase in PRA expression	no significant differences	not significantly modified	increase in nuclear and cytoplasmic PRA staining	increase in PRA expression	no significant differences	not significantly modified	decreased	increase in PRA expression	no significant changes	did not alter cell proliferation	no signs of toxicity	decreased	–	–	–	–	–
CC(=O)O[C@]1(C(C)=O)CC[C@H]2[C@@H]3C[C@H](C)C4=CC(=O)CC[C@]4(C)[C@H]3CC[C@@]21C [MPA, medroxyprogesterone acetate]	–	–	–	–	–	–	–	–	–	–	–	–	–	–	proliferative effect	strong proliferative effect	no differences were observed	inhibitory effects	stimulated
